Literature values in patent US20080213281A1, “Butyrylcholinesterase Variants that Alter the Activity of Chemotherapeutic Agents” (priority 2002, published 2008).

Tests used:
[1] = in vitro; Pavillard et al.; cited from earlier work
[2] = patients treated with 200 mg/m2 CPT-11; for at least 24 hours; Ducreux et al.; cited from earlier work

Row | SMILES | fold more cytotoxic than CPT-11 [1] | plasma concentration of CPT-11 [2]
1 | CCc1c2c(nc3ccc(O)cc13)-c1cc3c(c(=O)n1C2)COC(=O)[C@]3(O)CC [SN38, 7-ethyl-10-hydroxycamptothecin] | greater than 1000 fold | 
2 | CCc1c2c(nc3ccc(OC(=O)N4CCC(N5CCCCC5)CC4)cc13)-c1cc3c(c(=O)n1C2)COC(=O)[C@]3(O)CC [CPT-11, 7-ethyl-10-[4-(1-piperidino)-1-piperidine]carbonyloxycamptothecin] |  | above 0.1 μM
